For experiment [1], the system named is Mycobacterium tuberculosis. Kind of experiment: MMV: Screen against Mtb, single point, replicating, at 25uM. It is filed as functional.
For experiment [2], the system named is Mycobacterium tuberculosis. The experiment can be described thus: MMV: Screen against Mtb, single point, non replicating, at 25uM. It is filed as functional.

For orientation: inhibition means the relative decrease from the control value, in per cent. Consider `CCOc1cc(CNC(C)C(O)c2ccccc2)cc(Cl)c1OCC` (centres undefined), for which the inhibition at 25 µM was 18.6% in experiment [1] and 9.76% in experiment [2].
Turning to `Cc1cc(NC(=O)c2cccc(C(F)(F)F)c2)n(-c2nc(-c3ccc4c(c3)OCO4)cs2)n1`, the inhibition at 25 µM stood at 5.83% in experiment [1] and 3.48% in experiment [2].
As for `Cc1cccc(-n2ncc3c(O)nc(-n4nc(C)cc4NC(=O)c4cc5ccccc5o4)nc32)c1`, the inhibition at 25 µM in experiment [1] was 48.5%; in experiment [2] it was 48.2%.
As to `O=C(Nc1ccccc1O)c1ccc(Oc2cccc(C(=O)Nc3ccccc3O)c2)cc1`, the values for the inhibition at 25 µM in experiment [1] and in experiment [2] were 11.8% and 11.7%, respectively.
For `Oc1ccccc1CN1CCC2(CCCN(Cc3ccccc3F)C2)C1` (centres undefined), in that order: 50.6% and 9.59%.
The matching figures for `N=c1n(CCN2CCCCC2)c2ccccc2n1CC(O)c1cccc(Br)c1` (centres undefined): 16.3% and 12.9%.
For `COc1cccc(O)c1CN1CCC2(CCCN(Cc3ccc(F)cc3)C2)C1` (centres undefined), in that order: 18% and 16.4%.
For the compound `Cc1ccc(-c2cc(C(=O)Nc3ccc(S(=O)(=O)N4CCCCC4)cc3)[nH]n2)c(O)c1`, the inhibition at 25 µM in experiment [1] was 11.4%; in experiment [2], 9.41%.
The matching figures for `O=C(NCc1ccco1)C1CCN(S(=O)(=O)c2ccc(Cl)cc2)CC1`: 46.4% and 12.4%.
With `COc1ccc(C(=O)Nc2ccc3nc(N4CCCCC4)cc(C)c3c2)cc1OC`, the inhibition at 25 µM in experiment [1] came to 21.3%; in experiment [2], 23.7%.
For `COc1ccc(N2CCN(C(CNC(=O)C3CCCCC3)c3ccc4c(c3)OCO4)CC2)cc1` (centres undefined), the inhibition at 25 µM in experiment [1] was -3.89%; in experiment [2], 0.862%.
`COc1cc2cc(C(=O)Nc3ccccc3)c(N)nc2cc1OC`: the results for the inhibition at 25 µM in experiment [1] and in experiment [2] were 17.1% and 1.39%, respectively.
Take `COc1cccc(NC(=O)Cn2c(C)c(C#N)c3ccccc32)c1`: the inhibition at 25 µM in experiment [1] was determined as 7.96%; in experiment [2] it was 8.89%.
The matching figures for `Cn1c(=O)c2cc(C(=O)NCCCN3CCCCCC3)sc2c2ccccc21`: 19.5% and 14.6%.
`Cc1[nH]c(-c2ccc(F)cc2)cc1C(=O)NC1CCN(Cc2ccccc2)CC1`: the inhibition at 25 µM worked out at 20.7% in experiment [1] and 4% in experiment [2].
For the compound `COc1ccc(CCN2CCC(CN(C)Cc3cnn(-c4ccccc4)c3)CC2)cc1`, the inhibition at 25 µM in experiment [1] amounted to 21.3%; in experiment [2], 15%.
`O=C(NC(c1ccccc1)c1ccc2cccnc2c1O)c1ccccc1` (centres undefined): the inhibition at 25 µM in experiment [1] was found to be 7.65%; in experiment [2] it was 17.1%.
As to `Oc1ccccc1CN1CCN(C(c2ccccc2)c2ccccc2)CC1`, the figures for the inhibition at 25 µM in experiment [1] and in experiment [2] were 33.3% and 28.8%, respectively.
For the compound `O=C(NC1CCCC1)c1ccc(N2CCC(NCc3cccc(C(F)(F)F)c3)CC2)cc1`, the inhibition at 25 µM in experiment [1] was 22.1%; in experiment [2] it was 3.83%.
On to `CCOc1cc(Br)c(C(C)NC(=O)c2cccc(OC)c2)cc1OCC` (centres undefined), for which the inhibition at 25 µM in experiment [1] was 11.9%; in experiment [2], 5.22%.
`CC(C)=CCN1CCC(C(=O)Nc2ccc(-c3nc4ccccc4[nH]3)cc2)CC1`: the inhibition at 25 µM in experiment [1] came out at 12.5%; in experiment [2] it was 17.3%.
`CCN(CC)CCn1c(=N)n(CC(O)c2ccc(Cl)c(Cl)c2)c2ccccc21` (centres undefined): the figures for the inhibition at 25 µM in experiment [1] and in experiment [2] were 36.2% and 10.1%, respectively.
Regarding `CCOc1cc(Cl)c(C(C)NC(=O)c2cccc(OC)c2)cc1OCC` (centres undefined), the inhibition at 25 µM worked out at 1.28% in experiment [1] and 9.94% in experiment [2].
As for `O=C(CCc1ccco1)NC1CCN(CC2(c3ccc(Cl)cc3)CCC2)CC1`, the values for the inhibition at 25 µM in experiment [1] and in experiment [2] were 31.6% and 20.8%, respectively.
For the compound `FC(F)(F)c1cccc(Nc2nc(-c3ccccc3)nc3ncccc23)c1`, the inhibition at 25 µM in experiment [1] amounted to 1.43%; in experiment [2] it was 7.32%.
Consider `CCN1CCN(c2cc(C)c3cc(NC(=O)c4ccc(OC)c(OC)c4)ccc3n2)CC1`, for which the inhibition at 25 µM in experiment [1] came to 14.8%; in experiment [2], 12.7%.
The matching figures for `COc1ccc(CNC2CCN(c3ccc(NC(=O)c4cccc(Cl)c4)cc3)CC2)cc1OC`: 47.3% and 19.2%.
Take `Cc1ccc(CSCc2ccc(C(=O)NC3CC3)o2)cc1`: the inhibition at 25 µM worked out at 24.4% in experiment [1] and 11.3% in experiment [2].
For the compound `CC(NCc1ccccc1)c1cc(Cl)ccc1O` (centres undefined), the inhibition at 25 µM is 21.2% in experiment [1] and 14.8% in experiment [2].
Turning to `CN1CCN(c2c3c(c(C#N)c4nc5ccccc5n24)CCC3)CC1`, the inhibition at 25 µM turned out to be 7.2% in experiment [1] and 4.53% in experiment [2].
On to `CCOc1ccc(C2N(C)c3ccccc3N2C)cc1`, for which the inhibition at 25 µM in experiment [1] was determined as 8.11%; in experiment [2] it was 11.7%.
As to `COc1ccc(C(=O)Nc2ccc(Cl)cc2C(=O)Nc2ccncc2)cc1`, the inhibition at 25 µM in experiment [1] was 4.46%; in experiment [2], 30.9%.
On to `O=C(Nc1ccc(CN2CCOCC2)cc1)c1ccc(-c2ccc(Br)cc2)o1`, for which the inhibition at 25 µM stood at 26% in experiment [1] and 24.4% in experiment [2].
For `CC(=O)NCCc1nc2ccccc2n1Cc1ccc(C(C)C)cc1`, in that order: 2.04% and 8.72%.
For `COc1nc(Nc2ccc(C(C)C)cc2)nc(OC)n1`, in that order: 14% and 8.02%.
As for `CCN(CC)CCNc1ncnc2c1[nH]c1ccc(Br)cc12`, the values for the inhibition at 25 µM in experiment [1] and in experiment [2] were 20.6% and 13.4%, respectively.
As to `CCOc1cccc(C(=O)Nc2ccc(-c3nc4ccccc4[nH]3)cc2)c1`, the inhibition at 25 µM was 15.5% in experiment [1] and 18% in experiment [2].
The matching figures for `CN(C)c1ccc(-c2nc3cc(N)ccc3[nH]2)cc1`: -1% and 16.4%.
For `O=C(CSc1ccc2nnc(-c3cccc(F)c3)n2n1)Nc1ccc2c(c1)OCO2`, in that order: 5.98% and 19.2%.
As to `CCN(CC)c1ccc(NC(=O)c2cccs2)cc1`, the figures for the inhibition at 25 µM in experiment [1] and in experiment [2] were 4.01% and 13.1%, respectively.
Consider `CCCC(c1nnnn1C1CCCCC1)N1CCN(C(=O)c2ccco2)CC1` (centres undefined), for which the values for the inhibition at 25 µM in experiment [1] and in experiment [2] were 20.4% and 5.57%, respectively.
In the case of `CC(C)(C)C(=O)Nc1ccc(C(=O)Nc2cccc(-c3nc4ccccc4[nH]3)c2)cc1`, the inhibition at 25 µM was 10.8% in experiment [1] and 8.19% in experiment [2].
For the compound `COc1ccc(-c2nonc2NC(=O)c2cccc(C)c2)cc1OC`, the inhibition at 25 µM in experiment [1] is 3.1%; in experiment [2], -4.72%.
In the case of `COc1cccc(-c2nn(C)c3sc(C(=O)NCCN4CCN(c5ccccc5F)CC4)cc23)c1`, the figures for the inhibition at 25 µM in experiment [1] and in experiment [2] were 29.5% and 14.8%, respectively.
The matching figures for `O=C(Nc1ccc(N2CCN(Cc3ccccc3)CC2)cc1)c1cccs1`: 11% and 6.45%.
As to `Cc1ccc(CN2CCC(C(=O)Nc3ccc(-c4cc5ccccc5[nH]4)cc3)CC2)o1`, the results for the inhibition at 25 µM in experiment [1] and in experiment [2] were 8.26% and 22.9%, respectively.
On to `O=C(Nc1ccc(N2CCCCC2)c(Cl)c1)c1ccc(Br)o1`, for which the results for the inhibition at 25 µM in experiment [1] and in experiment [2] were 18.9% and 11.9%, respectively.
In the case of `O=C(Nc1ccsc1C(=O)NC1CCCCC1)c1ccc(F)cc1`, the figures for the inhibition at 25 µM in experiment [1] and in experiment [2] were 3.4% and 20.6%, respectively.
Turning to `CC(C)(C)c1ccc(C(=O)Nc2nc3ccccc3s2)cc1`, the inhibition at 25 µM in experiment [1] is 54%; in experiment [2], -0.011%.
With `CCOc1cccc2sc(N(Cc3cccnc3)C(=O)C3CCCCC3)nc12`, the values for the inhibition at 25 µM in experiment [1] and in experiment [2] were 13.9% and 14.3%, respectively.
As to `CC1CC(C)CN(C(=O)c2ccc(Cl)cc2Cl)C1` (centres undefined), the inhibition at 25 µM in experiment [1] was found to be 14.8%; in experiment [2], 9.59%.
`COc1ccccc1CNC(=O)C1c2ccccc2C(=O)N(CC(C)C)C1c1cccs1` (centres undefined): the values for the inhibition at 25 µM in experiment [1] and in experiment [2] were 15.7% and 9.76%, respectively.
`OC(CNC1CCCC1)Cn1c2ccccc2c2ccccc21` (centres undefined): the inhibition at 25 µM in experiment [1] is 27.5%; in experiment [2], 13.1%.
Regarding `COc1ccc(C2N(C)c3ccccc3N2C)cc1`, the figures for the inhibition at 25 µM in experiment [1] and in experiment [2] were -1.76% and -0.36%, respectively.
As for `CCN(CC)c1cc(C)c2cc(NC(=O)c3cccc(OC)c3)ccc2n1`, the inhibition at 25 µM turned out to be 18.7% in experiment [1] and 19.7% in experiment [2].
Take `O=C(Nc1ccccc1O)c1ccc(-c2ccc(Cl)cc2Cl)o1`: the inhibition at 25 µM turned out to be 13.7% in experiment [1] and 27.6% in experiment [2].
`CC(C)OCc1cc(CN2CCN(c3cccc(Cl)c3)CC2)c(O)c2ncccc12`: the inhibition at 25 µM in experiment [1] came out at 9.32%; in experiment [2], 11.7%.
For `CCOc1ccc(-c2nc(NC(=O)c3cccc(S(C)(=O)=O)c3)sc2C)cc1`, in that order: 54.3% and 11.7%.
For `Clc1ccc2[nH]c3c(NCCCN4CCOCC4)ncnc3c2c1`, the inhibition at 25 µM in experiment [1] was determined as 16.2%; in experiment [2] it was 21.6%.
Consider `COc1ccccc1N1CCN(C(CNS(=O)(=O)c2ccc(Cl)cc2)c2cccnc2)CC1` (centres undefined), for which the inhibition at 25 µM in experiment [1] came to 4.01%; in experiment [2] it was 15.2%.
Turning to `CCCc1c(C)nc2ccccc2c1O`, the inhibition at 25 µM is 15.9% in experiment [1] and 9.94% in experiment [2].
As to `CCOc1c(Cl)cc(CNC(C)C(O)c2ccccc2)cc1OC` (centres undefined), the inhibition at 25 µM in experiment [1] is 12.7%; in experiment [2] it was 10.3%.
With `CCCN(CCC)CCCNC(=O)c1cc2c(-c3ccc(OC)c(OC)c3)nn(C)c2s1`, the inhibition at 25 µM in experiment [1] is 5.83%; in experiment [2], -0.011%.
Regarding `CN1c2ccccc2N(C)C1c1ccc2c(c1)OCO2`, the figures for the inhibition at 25 µM in experiment [1] and in experiment [2] were 9.63% and 14.5%, respectively.
For `O=C(NCC1Cc2cccc(-c3ccncc3)c2O1)c1csc2c1CCCC2` (centres undefined), the inhibition at 25 µM turned out to be 14.2% in experiment [1] and 5.92% in experiment [2].
With `C=C(C)CCC(C)N1CCC(N2CCC(C(=O)NCCc3ccccc3)CC2)CC1` (centres undefined), the inhibition at 25 µM was -4.8% in experiment [1] and 15.2% in experiment [2].
For the compound `C=CCc1c(C)nc2ccccc2c1O`, the inhibition at 25 µM in experiment [1] was 15.2%; in experiment [2], 1.56%.

(Values after ChEMBL document CHEMBL2094260, “Malaria Box Tuberculosis Screening Data”.)
